Measurements published in PubChem BioAssay (NCI).
Values joined by “and” are separate entries in the source; they are usually repeats but may differ in a detail not shown here. Identical values can stand only once.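 Five concentrations, 48 hours, 96-well plates. The concentration for 50% growth inhibition is given as GI50. TGI: total growth inhibition.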

Experiments:
Experiment in all cases: DTP human tumour cell line panel, 48 h
CCRF-CEM leukemia = test system: CCRF-CEM leukemia
MDA-MB-231 breast = test system: MDA-MB-231 breast
OVCAR-8 ovarian = test system: OVCAR-8 ovarian
SK-MEL-2 melanoma = test system: SK-MEL-2 melanoma
SN12C renal = test system: SN12C renal
SR leukemia = test system: SR leukemia
SW-620 colon = test system: SW-620 colon
TK-10 renal = test system: TK-10 renal
U251 CNS = test system: U251 CNS
UACC-257 melanoma = test system: UACC-257 melanoma

SMILES | TGI (CCRF-CEM leukemia) | TGI (MDA-MB-231 breast) | TGI (OVCAR-8 ovarian) | TGI (SK-MEL-2 melanoma) | TGI (SN12C renal) | TGI (SR leukemia) [µM] | TGI (SW-620 colon) | TGI (TK-10 renal) | TGI (U251 CNS) | TGI (UACC-257 melanoma) | GI50 (CCRF-CEM leukemia) | GI50 (MDA-MB-231 breast) | GI50 (OVCAR-8 ovarian) | GI50 (SK-MEL-2 melanoma) [nM] | GI50 (SN12C renal) | GI50 (SR leukemia) [nM] | GI50 (SW-620 colon) | GI50 (TK-10 renal) | GI50 (U251 CNS) | GI50 (UACC-257 melanoma)
CCc1nc(N)nc(N)c1-c1ccc2nnn(O)c2c1 | > 100 µM | > 100 µM | > 100 µM | > 100 µM | > 100 µM | > 100 | > 100 µM | > 100 µM | > 100 µM | > 100 µM |  |  |  |  |  |  |  |  |  | 
C[C@@H]1CCC([C@@H](C)[C@H]2CC[C@H]3[C@@H]4CC[C@H]5C[C@@H](O)CC[C@]5(C)[C@H]4CC[C@]23C)=NC1 | > 100 µM | > 84.6 µM | > 100 µM | 34.8 µM | > 100 µM | > 100 | > 100 µM | > 100 µM | > 86.4 µM | > 100 µM |  |  |  |  |  |  |  |  |  | 
O=[N+]([O-])c1ccc(C2=Nn3c(nnc3-c3ccc(Cl)cc3)SC2)o1 | 7.54 µM | 10.1 µM | 26.3 µM | 27.1 µM | 23.1 µM | 1.16 | 5.85 µM | 29.7 µM | 31.5 µM | 16.9 µM |  |  |  |  |  |  |  |  |  | 
C[C@]12CC[C@@H]3c4cc(O)c(O)cc4CC[C@H]3[C@@H]1CC[C@@H]2O | 20.2 µM | 52.5 µM | > 100 µM | 22.2 µM | > 100 µM | 48.5 | > 42.5 µM | > 74.9 µM | 35.1 µM | > 100 µM | 1670 nM | 4610 nM | 6.89 µM | 3230 | 6210 nM | 576 | 2730 nM | 24800 nM | 6.86 µM | 13 µM
Cc1cc(O)cc(C)c1/C=C/c1cncc(C(N)=O)c1 | > 25 µM | > 25 µM | > 25 µM | 14 µM | > 25 µM | > 25 | > 25 µM | > 25 µM | > 25 µM | > 25 µM | 2880 nM | 2150 nM | 4.15 µM | 1250 | 2920 nM | 1060 | 1400 nM | 5990 nM | 1.49 µM | 3.37 µM
CCCCCCCCC/C(=N\NC(=O)c1ccncc1)c1ccc(O)c(O)c1O | 3.63 µM | 31.5 µM | > 100 µM | > 100 µM | 35 µM | 24.4 | 28.3 µM | > 100 µM | 65.9 µM | 9.32 µM | 42.6 nM | 116 nM | 0.179 µM | 521 | 207 nM | 57.6 | 365 nM | 196 nM | 0.11 µM | 0.293 µM
CC1(C)CC[C@]2(C(=O)O)CC[C@]3(C)C(=CC[C@@H]4[C@@]5(C)C[C@H](O)[C@H](O)[C@@](C)(C(=O)O)[C@@H]5CC[C@]43C)[C@@H]2C1 | > 100 µM | > 100 µM | > 100 µM | > 100 µM | > 100 µM | > 100 | > 100 µM | > 100 µM | > 100 µM | > 100 µM |  |  |  |  |  |  |  |  |  | 
CC1=CCCC2C1(C)CCC(C)C2(C)Cc1cc(O)ccc1O (stereo not drawn) | > 37.1 µM and 5.88 µM | 21.5 µM | 16.7 µM and 17.7 µM | 27.9 µM and 24 µM | 29.3 µM and 23.8 µM | 24.7 | 33.3 µM and 23.3 µM | 25.5 µM | 15.4 µM and 16.5 µM | 29.1 µM and 26.4 µM | 3760 nM |  |  |  | 13100 nM |  | 12900 nM |  |  | 9.99 µM
Cc1nc(-c2nc(-c3ccc(OC(F)(F)F)cc3)no2)nn1Cc1cccc(N2CCC(S(C)(=O)=O)CC2)c1 | > 100 µM | > 100 µM | > 100 µM | > 86.5 µM | > 100 µM | 97.9 | > 100 µM | > 100 µM | > 100 µM | > 86.6 µM | 7410 nM | 17600 nM | 3.86 µM | > 35100 | > 31100 nM | 397 | > 46900 nM | 4410 nM | > 39.3 µM | 0.286 µM
COC(=O)C1=COC(C)C2CN3CCc4c([nH]c5cc(OC)c(OC)cc45)C3CC12 (stereo not drawn) | > 100 µM | > 100 µM | > 100 µM | > 100 µM | > 100 µM | > 100 | > 100 µM | > 100 µM | > 100 µM | > 100 µM | 41700 nM and 13600 nM |  | > 100 µM and 45.1 µM |  |  |  | > 100000 nM and 39100 nM |  | > 100 µM and 47.4 µM | 
COc1cc2ncnc(Nc3cccc(Cl)c3F)c2cc1OC(=O)N1CCN(C)C[C@H]1C | > 100 µM | > 59.5 µM | > 77.9 µM | > 61.1 µM | > 100 µM | > 71.8 | > 69.7 µM | 20 µM | > 64.5 µM | > 59.2 µM | > 55900 nM | 25300 nM | > 40.9 µM | > 43600 | 40500 nM | > 45800 | > 44900 nM | 180 nM | > 44.2 µM | > 41.1 µM
COc1ccc2c(c1)[nH]c(=O)c1c3ccccc3cn21 |  | 0.74 µM and 1.08 µM | 2.36 µM and 5.18 µM | 2.49 µM and 18.7 µM | 2.08 µM and 8.97 µM | 2.04 | 1.42 µM and 1.51 µM | 2.43 µM and 2.21 µM | 1.52 µM and 4.44 µM | 30.8 µM | 30 nM | 56.5 nM and 148 nM | 0.0581 µM |  | 57.1 nM and 280 nM |  | 26.4 nM | 515 nM and 265 nM | 0.0436 µM | 5.13 µM and 12.7 µM
COc1cc2c(cc1Cc1cccc(Cl)c1F)c(=O)c(C(=O)O)cn2[C@@H](CO)C(C)C | 14.2 µM | 19.7 µM | 11.8 µM | 13.8 µM | 13.7 µM | 13.8 | 15 µM |  | 12.2 µM | 14 µM | 3410 nM | 3840 nM | 3.03 µM | 3980 | 3060 nM | 3540 | 3570 nM |  | 3.17 µM | 3.23 µM
Cc1ccc2c(c1)c(Sc1ccc(C(=O)NO)cc1)c1n2CN(C)CC1 | 9.52 µM | 4.13 µM | 4.99 µM | 4.21 µM | 6.79 µM | 8.93 | 4.45 µM | 6.73 µM | 3.42 µM | 5.37 µM | 1300 nM | 1510 nM | 1.69 µM | 1880 | 2280 nM | 2690 | 1770 nM | 2190 nM | 1.61 µM | 1.48 µM
COc1ccc2c(O)c(/C=C3\N=Nc4ccccc43)oc2c1C[C@@H]1CCNC[C@H]1F | 6.1 µM | 7.33 µM | 5.53 µM | 32.5 µM |  | 5.48 | 11.7 µM | 29.4 µM | 10.6 µM | 32 µM | 2330 nM | 2420 nM | 2.28 µM | 17000 |  | 1500 | 2510 nM | 15000 nM | 3.17 µM | 16.2 µM
N#Cc1c(N)n2c(nc1=Nc1ccc(Cl)cc1)sc1cc(Cl)ccc12 |  | 71 µM |  |  | > 100 µM | > 100 | > 100 µM | > 100 µM | > 100 µM | > 100 µM | 4210 nM | 7280 nM |  | 2010 | 33500 nM | 2260 | 3420 nM | 15000 nM | 6.56 µM | > 100 µM
Cn1nc(C(F)(F)F)cc1-c1c[nH]c(OCc2ccc(Cl)cc2)c(-c2ccc(Cl)c(C(F)(F)F)c2)c1=O | > 50 µM | 3.51 µM | > 50 µM | 2.52 µM | 6.95 µM | > 14.3 | 7.74 µM | > 36.6 µM | > 17.5 µM | 3.6 µM | 998 nM | 1130 nM | 1.19 µM | 761 | 755 nM | 1090 | 1440 nM | 1800 nM | 1.27 µM | 0.919 µM
C=C1C(=O)O[C@H]2C[C@@H]1CC/C(C)=C/CC/C(C)=C/CC[C@@]2(C)O | 38.9 µM | 53.7 µM | > 100 µM | > 100 µM | 65.7 µM | 63.6 | > 100 µM | 67.7 µM | > 100 µM | > 100 µM | 16500 nM | 25700 nM | 81.2 µM | 46700 | 24900 nM | 26500 | 35000 nM | 21500 nM | 53 µM | > 100 µM
S=C(NCCNC(=S)[S][Sn]([c]1ccccc1)([c]1ccccc1)[c]1ccccc1)[S][Sn]([c]1ccccc1)([c]1ccccc1)[c]1ccccc1 | 0.657 µM | 0.0957 µM | 0.202 µM | 0.215 µM | 0.218 µM | 16.2 | 0.0379 µM | 0.126 µM | 0.064 µM | 0.117 µM | 17.9 nM | 20.7 nM | 0.0445 µM | 82.3 | 32.5 nM | 17 | 14 nM | 61.2 nM | 0.0187 µM | 0.0522 µM
Cc1cc(Nc2ncc3c(n2)N(C)C(=O)N(c2cc(NC(=O)c4cccc(C(F)(F)F)c4)ccc2C)C3)n(C)n1 | > 46.4 µM | 0.164 µM |  | 0.0764 µM | > 100 µM | 1.21 | > 46.4 µM |  | > 31.6 µM | 0.125 µM | 2360 nM | 25.5 nM |  | 24.5 | 16.7 nM | 26.4 | 53.9 nM |  | 0.0317 µM | 0.0197 µM
